According to PMC4263425 (Biochemistry, 2014):

Assays:
[1] = target: HDAC8; conditions: read-out: Ki for HDAC8; cited from earlier work
[2] = target: T1, human HDAC8 (Homo sapiens, UniProt Q9BY41); assay: Isothermal titration calorimetry; assay type: binding
T1 sequence (Q9BY41 1-377): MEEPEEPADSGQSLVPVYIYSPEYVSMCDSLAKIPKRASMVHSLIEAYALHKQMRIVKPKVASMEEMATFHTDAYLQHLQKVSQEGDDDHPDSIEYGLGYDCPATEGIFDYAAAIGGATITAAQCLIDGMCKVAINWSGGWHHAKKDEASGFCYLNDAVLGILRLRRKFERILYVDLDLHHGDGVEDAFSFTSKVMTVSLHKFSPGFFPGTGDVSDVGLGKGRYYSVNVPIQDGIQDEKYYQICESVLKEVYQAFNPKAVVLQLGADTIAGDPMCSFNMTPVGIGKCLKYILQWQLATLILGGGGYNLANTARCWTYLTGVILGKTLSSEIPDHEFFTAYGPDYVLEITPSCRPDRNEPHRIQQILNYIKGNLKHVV

[3] = target: T1, human HDAC8; assay: Temperature-dependent ITC; assay type: binding; conditions: for temp (K), where ΔG° = ΔH°: interpolated from the ΔCp° plots, TΔS° = 0
[4] = Tris-HCl buffer (pH 7.5), 25 °C
[5] = difference versus SAHA, Table 1 conditions

O=C(CCCCCCC(=O)Nc1cccnc1)NO [pyroxamide]
Ki [1]: 1000 nM

O=C(CCCc1ccccc1)NO [4-PBHA]
Ki [1]: 1850 nM

O=C(CCCCCCC(=O)Nc1ccccc1)NO [SAHA, suberoylanilide hydroxamic acid]
higher favorable binding enthalpy compared to that of TSA ([2]; Table 1 conditions): 2 kcal/mol | stoichiometry [2, 4]: 0.9 ± 0.1 | ΔG°obs [2, 4]: –8.4 ± 0.3 kcal/mol | stoichiometry of the enzyme–SAHA complex ([2]; control ITC titration for every batch of enzyme): 0.9–1 | temp (K), where ΔG° = ΔH° [3]: 288 K

CC(NC(=O)CCCc1ccc2ccc3cccc4ccc1c2c34)C(=O)NO (stereo not shown) [MH-12/4, N-(1-Hydroxycarbamoyl-ethyl)-4-pyren-1-yl-butyramide]
TΔS°obs [2, 4]: 5.3 ± 0.4 kcal/mol | stoichiometry [2, 4]: 0.9 ± 0.1 | ΔG°obs [2, 4]: –8.0 ± 0.4 kcal/mol | ΔH°obs [2, 4]: –2.72 ± 0.3 kcal/mol | binding enthalpy less favorable than that of SAHA by [2, 5]: 8.2 kcal/mol | binding entropy (TΔS°) more favorable than that of SAHA by [2, 5]: 7.8 kcal/mol | ΔCp° ([3]; 5–25 °C, Tris-HCl buffer, slope of ΔH°obs vs temperature): –0.13 ± 0.02 kcal mol^–1 K^–1 | temp (K), where ΔG° = ΔH° [3]: 341 K

Cn1cc(C(=O)c2ccccc2)cc1C=CC(=O)NO [APHA]
Ki [1]: 600 nM
